This series can be described thus: Rat pharmacokinetics after intravenous and oral dosing (Example 3). Format: in vivo. The conditions noted are these: Alderley Park Han Wistar; male rat (Han Wistar), oral 2 mg/kg vs intravenous 2 mg/kg, whole blood; read-out: F (bioavailability). The method, then: The rat pharmacokinetic (PK) parameters blood clearance (CL), volume of distribution (Vdss) and half life (t½) are calculated by determining the concentration (exposure) of test compound in whole blood samples taken from rats at various, defined time points subsequent to the intra-venous dosing (administration) of formulated test compound. The rat PK parameter bioavailability (F) is calculated by determining the concentration (exposure) of test compound in whole blood samples taken from rats at various, defined time-points subsequent to the oral dosing (administration) of formulated test compound and then by comparison of the ratio of the dose normalized total oral exposure (AUCpo) with the dose normalized total intra-venous exposure (AUCiv). Fraction absorbed (Fabs) is a secondary PK parameter that is often calculated from a knowledge of the clearance (CL) and bioavailability (F) of a test compound. […]
Calibration standard samples are prepared by addition of known amounts of test compound to blank diluted (1:1) blood samples. […] Following centrifugation, sample and calibration standard supernatants are analysed for test compound concentration by HPLC with MS/MS (triple quad mass spectrometry) detection. Quantification of test compound concentrations in the blood samples taken from the rats is achieved by reference to a standard curve constructed from the calibration standard samples. […]

Two compounds from patent US20100093795A1, “Piperidine Derivative Used for Treating Chemokine Receptor 5 Mediated Diseases” (priority 2006, published 2010) can be followed below.

For orientation: bioavailability means dose-corrected exposure relative to a reference, in per cent. Take `Cc1nnc(C(C)C)n1C1CCN(C(C)C[C@@H](c2cc(F)cc(F)c2)C2CCN(S(C)(=O)=O)CC2)CC1` (single isomer, unassigned) [Comparator Compound A]: the bioavailability was 1%.
With `CCc1nnc(C(C)C)n1C1CCN([C@H](C)C[C@@H](c2cc(F)cc(F)c2)C2CCN(S(C)(=O)=O)CC2)CC1` (single isomer, unassigned), the bioavailability was determined as 28%.
